Source: patent publication US20160022684A1, “BET INHIBITOR AND BRUTON'S TYROSINE KINASE INHIBITOR COMBINATIONS” (Pharmacyclics LLC, priority 2014, published 2016)

How the values were obtained:
Format in all cases: cell-based
[1] = tested on: TMD8; test: Combined drug treatment cell viability (CellTiter-Glo), ibrutinib with BET inhibitors, TMD8; details: JQ1 20 nM, 3 days
Procedure: (§1) The DLBCL cell lines used during the experiments included TMD8, OCI-LY3, OCI-LY10, U-2932 and SU-DHL-2. DLBCL cells at either 1×10^4 cells or 2×10^4 cells were plated onto each well of a 96-W plate (Table 1). […] The 96-W plate was then incubated for 3 days. Cell viability was examined using a CellTiter-Glo assay. A 40 μL of CellTiter-Glo reagent was added directly into each well of the 96-W plate. The plate was then shaken on a Shaker ([…]) at speed 5 for 10-20 min at room temperature. Next, about 100 μL of the mixed medium was transferred to a white, non-transparent, flat bottom 96-W plate for assaying. […] Measurements were taken at room temperature. CellTiter-Glow reagents were thawed prior to use. Cells pre-plated onto a second 96-W plate and incubated at room temperature for 30 minutes were used for calibration purposes. […] CI is a quantitative description of the interaction property of the combination of two drugs.

[2] = tested on: OCI-LY3; test: Combined drug treatment cell viability (CellTiter-Glo), ibrutinib with BET inhibitors, OCI-LY3; details: OCI-LY-3, JQ1 1 uM, 3 days
Procedure: as §1

[3] = tested on: OCI-LY10; test: Combined drug treatment cell viability (CellTiter-Glo), ibrutinib with BET inhibitors, OCI-LY10; details: OCI-LY-10, JQ1 1 uM, 3 days
Procedure: as §1

[4] = tested on: SU-DHL-2; test: Combined drug treatment cell viability (CellTiter-Glo), ibrutinib with BET inhibitors, SU-DHL-2; details: JQ1 100 nM, 3 days
Procedure: as §1

[5] = tested on: U-2932; test: Combined drug treatment cell viability (CellTiter-Glo), ibrutinib with BET inhibitors, U-2932; details: U2932, JQ1 20 nM, 3 days
Procedure: as §1

[6] = ibrutinib 0 nM (BET inhibitor alone): I-BET151 200 nM, OTX015 100 nM
[7] = ibrutinib 0.0256 nM with I-BET151 200 nM, OTX015 100 nM or medium alone (row)
[8] = ibrutinib 0.64 nM with I-BET151 200 nM, OTX015 100 nM or medium alone (row)
[9] = ibrutinib 3.2 nM with I-BET151 200 nM, OTX015 100 nM or medium alone (row)
[10] = ibrutinib 16 nM with I-BET151 200 nM, OTX015 100 nM or medium alone (row)
[11] = ibrutinib 80 nM with I-BET151 200 nM, OTX015 100 nM or medium alone (row)
[12] = ibrutinib 400 nM with I-BET151 200 nM, OTX015 100 nM or medium alone (row)
[13] = ibrutinib 2000 nM with I-BET151 200 nM, OTX015 100 nM or medium alone (row)
[14] = ibrutinib 10000 nM with I-BET151 200 nM, OTX015 100 nM or medium alone (row)
[15] = ibrutinib […] with I-BET151 200 nM, OTX015 100 nM or medium alone (row)
[16] = ibrutinib 0 nM (BET inhibitor alone): I-BET151 5 uM, OTX015 1 uM
[17] = ibrutinib 0.0256 nM with I-BET151 5 uM, OTX015 1 uM or medium alone (row)
[18] = ibrutinib 0.64 nM with I-BET151 5 uM, OTX015 1 uM or medium alone (row)
[19] = ibrutinib 3.2 nM with I-BET151 5 uM, OTX015 1 uM or medium alone (row)
[20] = ibrutinib 16 nM with I-BET151 5 uM, OTX015 1 uM or medium alone (row)
[21] = ibrutinib 80 nM with I-BET151 5 uM, OTX015 1 uM or medium alone (row)
[22] = ibrutinib 400 nM with I-BET151 5 uM, OTX015 1 uM or medium alone (row)
[23] = ibrutinib 2000 nM with I-BET151 5 uM, OTX015 1 uM or medium alone (row)
[24] = ibrutinib 10000 nM with I-BET151 5 uM, OTX015 1 uM or medium alone (row)
[25] = ibrutinib […] with I-BET151 5 uM, OTX015 1 uM or medium alone (row)
[26] = ibrutinib 0 nM (BET inhibitor alone): I-BET151 2 uM, OTX015 1 uM (Table 2)
[27] = ibrutinib 0.0256 nM with I-BET151 2 uM, OTX015 1 uM (Table 2) or medium alone (row)
[28] = ibrutinib 10000 nM with I-BET151 2 uM, OTX015 1 uM (Table 2) or medium alone (row)
[29] = ibrutinib […] with I-BET151 2 uM, OTX015 1 uM (Table 2) or medium alone (row)
[30] = ibrutinib 0 nM (BET inhibitor alone): I-BET151 200 nM, OTX015 50 nM (Table 2)
[31] = ibrutinib 0.0256 nM with I-BET151 200 nM, OTX015 50 nM (Table 2) or medium alone (row)
[32] = ibrutinib 0.64 nM with I-BET151 200 nM, OTX015 50 nM (Table 2) or medium alone (row)
[33] = ibrutinib 3.2 nM with I-BET151 200 nM, OTX015 50 nM (Table 2) or medium alone (row)
[34] = ibrutinib 16 nM with I-BET151 200 nM, OTX015 50 nM (Table 2) or medium alone (row)
[35] = ibrutinib 80 nM with I-BET151 200 nM, OTX015 50 nM (Table 2) or medium alone (row)
[36] = ibrutinib 400 nM with I-BET151 200 nM, OTX015 50 nM (Table 2) or medium alone (row)
[37] = ibrutinib 2000 nM with I-BET151 200 nM, OTX015 50 nM (Table 2) or medium alone (row)
[38] = ibrutinib 10000 nM with I-BET151 200 nM, OTX015 50 nM (Table 2) or medium alone (row)
[39] = ibrutinib […] with I-BET151 200 nM, OTX015 50 nM (Table 2) or medium alone (row)

Cc1sc2c(c1C)C(c1ccc(Cl)cc1)=N[C@@H](CC(=O)Nc1ccc(O)cc1)c1nnc(C)n1-2 [OTX015]
luminescent signals [1, 6]: 47319.47
luminescent signals [1, 7]: 11004.22
luminescent signals [1, 8]: 9847.13
luminescent signals [1, 9]: 9773.329
luminescent signals [1, 10]: 9272.538
luminescent signals [1, 11]: 9472.854
luminescent signals [1, 12]: 9301.531
luminescent signals [1, 13]: 10927.78
luminescent signals [1, 14]: 7055.879
luminescent signals [1, 15]: 11191.36
luminescent signals [2, 16]: 12422.08
luminescent signals [2, 17]: 14387.47
luminescent signals [2, 18]: 13925.64
luminescent signals [2, 19]: 14043.72
luminescent signals [2, 20]: 13776.07
luminescent signals [2, 21]: 14290.38
luminescent signals [2, 22]: 15615.51
luminescent signals [2, 23]: 15793.94
luminescent signals [2, 24]: 14418.95
luminescent signals [2, 25]: 12918.02
luminescent signals [3, 16]: 45142.68
luminescent signals [3, 17]: 42481.51
luminescent signals [3, 18]: 40790.66
luminescent signals [3, 19]: 33872.14
luminescent signals [3, 20]: 29764.67
luminescent signals [3, 21]: 25880.72
luminescent signals [3, 22]: 25433.68
luminescent signals [3, 23]: 24952.47
luminescent signals [3, 24]: 23945.32
luminescent signals [3, 25]: 42647.18
luminescent signals [4, 26]: 945.707
luminescent signals [4, 27]: 1016.636
luminescent signals [4, 28]: 782.836
luminescent signals [4, 29]: 1087.564
luminescent signals [5, 30]: 55416.46
luminescent signals [5, 31]: 53427.04
luminescent signals [5, 32]: 50299.31
luminescent signals [5, 33]: 45013.52
luminescent signals [5, 34]: 49095.12
luminescent signals [5, 35]: 44565.57
luminescent signals [5, 36]: 48570.75
luminescent signals [5, 37]: 44022.77
luminescent signals [5, 38]: 33140.26
luminescent signals [5, 39]: 51182.03

COc1cc2c(cc1-c1c(C)noc1C)ncc1[nH]c(=O)n([C@H](C)c3ccccn3)c12 [I-BET151]
luminescent signals [1, 6]: 53526.63
luminescent signals [1, 7]: 14177.65
luminescent signals [1, 8]: 12722.72
luminescent signals [1, 9]: 11655.25
luminescent signals [1, 10]: 11328.42
luminescent signals [1, 11]: 11526.1
luminescent signals [1, 12]: 11191.36
luminescent signals [1, 13]: 11183.45
luminescent signals [1, 14]: 6995.257
luminescent signals [1, 15]: 13950.98
luminescent signals [2, 16]: 14156.55
luminescent signals [2, 17]: 15418.7
luminescent signals [2, 18]: 15156.3
luminescent signals [2, 19]: 13849.54
luminescent signals [2, 20]: 14914.89
luminescent signals [2, 21]: 13899.4
luminescent signals [2, 22]: 15392.46
luminescent signals [2, 23]: 13151.56
luminescent signals [2, 24]: 14424.2
luminescent signals [2, 25]: 12962.63
luminescent signals [3, 16]: 43633.29
luminescent signals [3, 17]: 41108.85
luminescent signals [3, 18]: 38594.93
luminescent signals [3, 19]: 31834.18
luminescent signals [3, 20]: 23382.58
luminescent signals [3, 21]: 21683.85
luminescent signals [3, 22]: 21781.14
luminescent signals [3, 23]: 22475.36
luminescent signals [3, 24]: 21920.51
luminescent signals [3, 25]: 38721.15
luminescent signals [4, 26]: 793.343
luminescent signals [4, 27]: 714.534
luminescent signals ([4]; ibrutinib 0.64 nM with I-BET151 2 uM, OTX015 1 uM (Table 2) or medium alone (row)): 704.027
luminescent signals ([4]; ibrutinib 3.2 nM with I-BET151 2 uM, OTX015 1 uM (Table 2) or medium alone (row)): 809.105
luminescent signals ([4]; ibrutinib 16 nM with I-BET151 2 uM, OTX015 1 uM (Table 2) or medium alone (row)): 843.256
luminescent signals ([4]; ibrutinib 80 nM with I-BET151 2 uM, OTX015 1 uM (Table 2) or medium alone (row)): 922.065
luminescent signals ([4]; ibrutinib 400 nM with I-BET151 2 uM, OTX015 1 uM (Table 2) or medium alone (row)): 798.597
luminescent signals ([4]; ibrutinib 2000 nM with I-BET151 2 uM, OTX015 1 uM (Table 2) or medium alone (row)): 717.161
luminescent signals [4, 28]: 585.813
luminescent signals [4, 29]: 835.375
luminescent signals [5, 30]: 50367.82
luminescent signals [5, 31]: 45116.29
luminescent signals [5, 32]: 42565.61
luminescent signals [5, 33]: 43472.05
luminescent signals [5, 34]: 43980.61
luminescent signals [5, 35]: 43659.14
luminescent signals [5, 36]: 44468.08
luminescent signals [5, 37]: 42568.25
luminescent signals [5, 38]: 32015.12
luminescent signals [5, 39]: 44167.69
